# Patent US6515122B1, “Tetracyclic benzimidazole derivatives and combinatorial libraries thereof” (Lion Bioscience AG, priority 1999, dated 2003)
# System: Streptococcus pyogenes (ATCC# 97-03 14289)
# Experiment: Anti-microbial screen (growth inhibition, OD 570 nm)
# Type: cell-based
# Conditions: ATCC97, compounds at 170 μg/ml, Todd Hewitt Broth, read at 4 hrs
# Procedure: Streptococcus pyogenes (ATCC# 97-03 14289) were grown in Todd Hewitt Broth (THB) (Difco Laboratories #0492-17-6) overnight until they reached an optical density of (OD=0.636@ 570 nm) by reading 0.1 ml in a 96 well microtiter plate in a Molecular Devices Thermomax. This preparation was kept frozen as stocks in 30% v/v glycerol in 1.5 ml aliquots at −70 C° until used. Prior to screening, 1.5 ml aliquots were thawed and diluted into 50 ml THB. 200 μl of this dilution was added to 92 wells of microtiter plate. To three wells THB (200 μl) was added to serve as a blank and a sterility control. Test compounds in DMSO and appropriate concentrations of DMSO were added to Growth/Solvent Controls at 0 time. Plates were read at 0 time at 570 nm in the Molecular Devices plate reader to obtain compounds correction factors for insoluble or colored compounds. Plates were read again at 4 hrs.
# Compounds were assayed at a concentration of 170 μg/ml. Percent inhibition for each compound was calculated using the following formulae:
# Color correct=(O.D. 0 hr−Blank 0 hr)−(Solvent Control 0 hr−Blank 0 hr)
# % Inhibition=100−(O.D. test compound 4 hr−Blank 4 hr−color correct) divided by (O.D. growth/solvent control 4 hr−Blank 4 hr)
row,Structure (SMILES),inhibition at 170 µg/mL [%]
1,CCN1CCCC1CNC(=O)c1ccc2c(c1)nc1n2CC(=O)Nc2ccc(NCCN3CCOCC3)cc2-1 (stereo not shown) [6000#00002],96.3
2,CCN1CCCC1CNC(=O)c1ccc2c(c1)nc1n2CC(=O)Nc2ccc(NCCN(C)C)cc2-1 (stereo not shown) [6000#00007],95.2
3,CCN1CCCC1CNC(=O)c1ccc2c(c1)nc1n2CC(=O)Nc2ccc(NCCCN3CCOCC3)cc2-1 (stereo not shown) [6000#00010],95.7
4,CCN1CCCC1CNC(=O)c1ccc2c(c1)nc1n2CC(=O)Nc2ccc(N(C)CCN(C)C)cc2-1 (stereo not shown) [6000#00015],96.3
5,O=C1Cn2c(nc3ccc(Cl)cc32)-c2cc(NC3CCCCCC3)ccc2N1 [6000#04048],95
6,CC1CC(Nc2ccc3c(c2)-c2nc4ccc(Cl)cc4n2CC(=O)N3)CC(C)(C)C1 (stereo not shown) [6000#04080],95.3
7,CC1CCCCN1CCCNc1ccc2c(c1)-c1nc3ccc(Cl)cc3n1C(C)C(=O)N2 (stereo not shown) [6000#08102],95.1
8,CN(CCc1ccccc1)c1ccc2c(c1)-c1nc3cc(C(=O)NC4CC(C)(C)NC(C)(C)C4)ccc3n1[C@@H](CCC(N)=O)C(=O)N2 [6000#17560],98.6
9,CC1(C)CC(NC(=O)c2ccc3c(c2)nc2n3[C@@H](CCC(N)=O)C(=O)Nc3ccc(NCc4cccc(C(F)(F)F)c4)cc3-2)CC(C)(C)N1 [6000#17584],97.2
10,CN(C)CCN(C)c1ccc2c(c1)-c1nc3ccccc3n1[C@H](Cc1ccccc1)C(=O)N2 [6000#36335],100
11,CN(C)CCN(C)c1ccc2c(c1)-c1nc3ccc(Cl)cc3n1[C@H](Cc1ccccc1)C(=O)N2 [6000#36655],96.8
12,CN(C)CCCNc1ccc2c(c1)-c1nc3ccc(Cl)cc3n1[C@H](Cc1ccccc1)C(=O)N2 [6000#36687],96.1
13,CN(C)CCCN(C)c1ccc2c(c1)-c1nc3cc(C(=O)N4CCC(C(N)=O)CC4)ccc3n1[C@@H](CC1CCCCC1)C(=O)N2 [6000#38375],95.1
14,COCCN(CCOC)C(=O)c1ccc2c(c1)nc1n2[C@@H](CC2CCCCC2)C(=O)Nc2ccc(N(C)CCN(C)C)cc2-1 [6000#38735],96.7
15,CSCCCNC(=O)c1ccc2c(c1)nc1n2[C@@H](CC2CCCCC2)C(=O)Nc2ccc(N(C)CCN(C)C)cc2-1 [6000#39135],98.1
16,CN(C)CCCN(C)c1ccc2c(c1)-c1nc3cc(C(=O)NCCN4CCOCC4)ccc3n1[C@@H](CC1CCCCC1)C(=O)N2 [6000#39255],95.2
17,CCOC(=O)CCNC(=O)c1ccc2c(c1)nc1n2[C@@H](Cc2ccc(Cl)cc2)C(=O)Nc2ccc(N(C)CCN(C)C)cc2-1 [6000#45135],97.8
18,CN(C)CCCN(C)c1ccc2c(c1)-c1nc3cc(C(=O)NCCCN4CCCC4=O)ccc3n1[C@@H](Cc1ccc(Cl)cc1)C(=O)N2 [6000#46455],96.8
19,COCCN(CCOC)C(=O)c1ccc2c(c1)nc1n2[C@@H](Cc2ccc(Cl)cc2)C(=O)Nc2ccc(N(C)CCN(C)C)cc2-1 [6000#46895],96.1
20,CC(=O)NCCNC(=O)c1ccc2c(c1)nc1n2[C@@H](Cc2ccc(Cl)cc2)C(=O)Nc2ccc(NCCCN3CCCCC3C)cc2-1 (stereo partly shown) [6000#47222],95.7

row,Structure (SMILES),inhibition at 170 µg/mL [%]
1,CSCCCNC(=O)c1ccc2c(c1)nc1n2[C@@H](Cc2ccc(Cl)cc2)C(=O)Nc2ccc(N(C)CCCN(C)C)cc2-1 [6000#47335],96.2
2,CN(C)CCN(C)c1ccc2c(c1)-c1nc3cc(C(F)(F)F)ccc3n1[C@@H](Cc1c[nH]c3ccccc13)C(=O)N2 [6000#52815],98.8
3,CN(C)CCN(C)c1ccc2c(c1)-c1nc3cc(Br)ccc3n1[C@@H](CCCCNC(=O)C(F)(F)F)C(=O)N2 [6000#56655],97.8
4,CN(C)CCCNc1ccc2c(c1)-c1nc3cc(Br)ccc3n1C(CCCCNC(=O)C(F)(F)F)C(=O)N2 (stereo not shown) [6000#56687],96.8
5,CN(C)CCCN(C)c1ccc2c(c1)-c1nc3cc(Br)ccc3n1C(CCCCNC(=O)C(F)(F)F)C(=O)N2 (stereo not shown) [6000#56695],95.8
6,CCN(CC)CCN(C)c1ccc2c(c1)-c1nc3cc(C(F)(F)F)ccc3n1C(CCCCNC(=O)C(F)(F)F)C(=O)N2 (stereo not shown) [6000#56919],95.8
7,CN(C)CCCNc1ccc2c(c1)-c1nc3cc(C(F)(F)F)ccc3n1C(CCCCNC(=O)C(F)(F)F)C(=O)N2 (stereo not shown) [6000#56927],96.3
8,CN(C)CCCN(C)c1ccc2c(c1)-c1nc3cc(C(F)(F)F)ccc3n1C(CCCCNC(=O)C(F)(F)F)C(=O)N2 (stereo not shown) [6000#56935],95.8
9,CCN1CCCC1CNc1ccc2c(c1)-c1nc3cc(C(F)(F)F)ccc3n1C(CCCCNC(=O)C(F)(F)F)C(=O)N2 (stereo not shown) [6000#56957],97.4
10,CCOC(=O)C1CCN(c2ccc3c(c2)-c2nc4ccc(Cl)cc4n2C(CCCCNC(=O)C(F)(F)F)C(=O)N3)CC1 (stereo not shown) [6000#57085],96.7
11,CCOCCNc1ccc2c(c1)-c1nc3cc(C(=O)Nc4nccs4)ccc3n1C(CCCNC(=N)N)C(=O)N2 (stereo not shown) [6000#57258],96.9
12,CCCCNc1ccc2c(c1)-c1nc3cc(C(=O)NCCCCCC(=O)OC)ccc3n1C(CCCNC(=N)N)C(=O)N2 (stereo not shown) [6000#57343],100
13,CCOC(=O)CCNC(=O)c1ccc2c(c1)nc1n2C(CCCNC(=N)N)C(=O)Nc2ccc(NC3CCN(Cc4ccccc4)C3)cc2-1 (stereo not shown) [6000#57389],97.3
14,CCOC(=O)CCNC(=O)c1ccc2c(c1)nc1n2C(CCCNC(=N)N)C(=O)Nc2ccc(Sc3ccccn3)cc2-1 (stereo not shown) [6000#57425],97.8
15,CCCCNc1ccc2c(c1)-c1nc3cc(C(=O)N4CCCC4)ccc3n1C(CCCNC(=N)N)C(=O)N2 (stereo not shown) [6000#57503],97.4
16,CCN(CC)c1ccc2c(c1)-c1nc3cc(C(=O)N4CCCC4)ccc3n1C(CCCNC(=N)N)C(=O)N2 (stereo not shown) [6000#57519],100
17,CCN(CC)c1ccc2c(c1)-c1nc3cc(C(=O)N(C)C4CCN(C)CC4)ccc3n1C(CCCNC(=N)N)C(=O)N2 (stereo not shown) [6000#57999],95.1
18,CCCCNc1ccc2c(c1)-c1nc3cc(C(=O)NCCO)ccc3n1C(CCCNC(=N)N)C(=O)N2 (stereo not shown) [6000#58223],97
19,CCOC(=O)C1CCCN(C(=O)c2ccc3c(c2)nc2n3C(CCCNC(=N)N)C(=O)Nc3ccc(N(C)CCc4ccccn4)cc3-2)C1 (stereo not shown) [6000#58414],98
20,CCOC(=O)C1CCCN(C(=O)c2ccc3c(c2)nc2n3C(CCCNC(=N)N)C(=O)Nc3ccc(N4CCCC(C(=O)OCC)C4)cc3-2)C1 (stereo not shown) [6000#58437],100

row,Structure (SMILES),inhibition at 170 µg/mL [%]
1,CCOC(=O)C1CCN(c2ccc3c(c2)-c2nc4cc(C(=O)N5CCCC(C(=O)OCC)C5)ccc4n2C(CCCNC(=N)N)C(=O)N3)CC1 (stereo not shown) [6000#58445],97
2,CCOC(=O)C1CCCN(C(=O)c2ccc3c(c2)nc2n3C(CCCNC(=N)N)C(=O)Nc3ccc(N4CCSCC4)cc3-2)C1 (stereo not shown) [6000#58475],99.1
3,COCCN(CCOC)C(=O)c1ccc2c(c1)nc1n2C(CCCNC(=N)N)C(=O)Nc2ccc(N(C)Cc3ccccc3)cc2-1 (stereo not shown) [6000#59152],97.2
4,CCOC(=O)C1CCCN(c2ccc3c(c2)-c2nc4cc(C(=O)N5CCC(NC(C)=O)C5)ccc4n2C(CCCNC(=N)N)C(=O)N3)C1 (stereo not shown) [6000#59317],96.6
5,CCOC(=O)C1CCN(c2ccc3c(c2)-c2nc4cc(C(=O)N5CCC(NC(C)=O)C5)ccc4n2C(CCCNC(=N)N)C(=O)N3)CC1 (stereo not shown) [6000#59325],95.2
6,CC(=O)NC1CCN(C(=O)c2ccc3c(c2)nc2n3C(CCCNC(=N)N)C(=O)Nc3ccc(N4CCSCC4)cc3-2)C1 (stereo not shown) [6000#59355],97.2
7,CCOC(=O)N1CCN(C(=O)c2ccc3c(c2)nc2n3C(CCCNC(=N)N)C(=O)Nc3ccc(NCCCSC)cc3-2)CC1 (stereo not shown) [6000#59387],97.8
8,CCOC(=O)N1CCN(C(=O)c2ccc3c(c2)nc2n3C(CCCNC(=N)N)C(=O)Nc3ccc(Sc4nc(C)cc(C)n4)cc3-2)CC1 (stereo not shown) [6000#59393],96.1
9,CCOC(=O)N1CCN(C(=O)c2ccc3c(c2)nc2n3C(CCCNC(=N)N)C(=O)Nc3ccc(Sc4ccccn4)cc3-2)CC1 (stereo not shown) [6000#59425],96.8
10,CCOC(=O)N1CCN(C(=O)c2ccc3c(c2)nc2n3C(CCCNC(=N)N)C(=O)Nc3ccc(N4CCSCC4)cc3-2)CC1 (stereo not shown) [6000#59435],96.1
11,CCOC(=O)N1CCN(C(=O)c2ccc3c(c2)nc2n3C(CCCNC(=N)N)C(=O)Nc3ccc(N(CC)CC)cc3-2)CC1 (stereo not shown) [6000#59439],96.4
12,CC(=O)NCCNC(=O)c1ccc2c(c1)nc1n2C(CCCNC(=N)N)C(=O)Nc2ccc(NCc3ccc(F)cc3)cc2-1 (stereo not shown) [6000#59512],98.7
13,CN(C)CCN(C)c1ccc2c(c1)-c1nc3cc(Br)ccc3n1C(CCCNC(=N)N)C(=O)N2 (stereo not shown) [6000#60735],99.9
14,CC(=O)NCCNc1ccc2c(c1)-c1nc3cc(Br)ccc3n1C(CCCNC(=N)N)C(=O)N2 (stereo not shown) [6000#60738],96.5
15,CC(=O)N1CCN(c2ccc3c(c2)-c2nc4cc(Br)ccc4n2C(CCCNC(=N)N)C(=O)N3)CC1 (stereo not shown) [6000#60754],97.3
16,CCOCCNc1ccc2c(c1)-c1nc3cc(Br)ccc3n1C(CCCNC(=N)N)C(=O)N2 (stereo not shown) [6000#60778],98.8
17,N=C(N)NCCCC1C(=O)Nc2ccc(N3CCOCC3)cc2-c2nc3cc(Br)ccc3n21 (stereo not shown) [6000#60794],97.3
18,CCOC(=O)N1CCN(c2ccc3c(c2)-c2nc4ccccc4n2C(CCCNC(=N)N)C(=O)N3)CC1 (stereo not shown) [6000#60826],95
